Laboratory results as given in BindingDB's records for doi:10.1021/acs.jmedchem.9b00963 (Hong Kong Polytechnic University, 2019).
pEC50: −log10 of the molar value.

Assays:
[1] = Inhibition of BCRP in human MCF7/MX100 cells assessed as reversal of topotecan resistance after 5 days by MTS/PMS assay
[2] = Inhibition of BCRP (unknown origin) transfected in HEK293/R2 cells assessed as reversal of topotecan resistance after 5 days by MTS/PMS assay
[3] = Inhibition of P-gp (unknown origin) expressed in human LCC6MDR cells assessed as reversal of paclitaxel resistance after 5 days by MTS/PMS assay

Structure (SMILES): Cc1ccc2oc(-c3ccc(OCCCCc4cn(CCOCCOc5ccc(-c6cc(=O)c7cc(F)ccc7o6)cc5)nn4)cc3)cc(=O)c2c1
- pEC50 [1]: 7.19
- pEC50 [2]: 7.82

Structure (SMILES): COC(=O)c1cccc(COc2c(-c3ccc(OCCOCCn4cc(CN(C)CCN(C)Cc5cn(CCOCCOc6ccc(-c7oc8ccccc8c(=O)c7OCc7cccc(C(=O)OC)c7)cc6)nn5)nn4)cc3)oc3ccccc3c2=O)c1
- pEC50 [1]: 7.08
- pEC50 [2]: 6.88
- pEC50 [3]: < 6.00

Structure (SMILES): Cc1ccc2oc(-c3ccc(OCCCCc4cn(CCOc5ccc6c(=O)cc(-c7ccccc7)oc6c5)nn4)cc3)cc(=O)c2c1
- pEC50 [1]: 6.65
- pEC50 [2]: 7.22
- pEC50 [3]: 6.69

Structure (SMILES): Cc1ccc2oc(-c3ccc(OCCCCc4cn(CCOCCOCCOc5ccc(-c6cc(=O)c7cc(F)ccc7o6)cc5)nn4)cc3)cc(=O)c2c1
- pEC50 [1]: 6.49
- pEC50 [2]: 7.24
- pEC50 [3]: 6.13

Structure (SMILES): Cc1ccc2oc(-c3ccc(OCCCCc4cn(CCN(CCOc5ccc(-c6cc(=O)c7ccccc7o6)cc5)Cc5ccccc5)nn4)cc3)cc(=O)c2c1
- pEC50 [1]: 7.41
- pEC50 [2]: 7.15
- pEC50 [3]: 6.17

Structure (SMILES): O=c1cc(-c2ccc(OCCCc3cn(CCOCCOCCOc4ccc(-c5oc6ccccc6c(=O)c5OCc5ccccc5)cc4)nn3)cc2)oc2cc(F)ccc12
- pEC50 [1]: 7.33
- pEC50 [2]: 7.60
- pEC50 [3]: 6.46

Structure (SMILES): O=c1cc(-c2ccc(OCCCc3cn(CCOCCOc4ccc(-c5cc(=O)c6ccccc6o5)cc4)nn3)cc2)oc2ccccc12
- pEC50 [3]: 6.70

Structure (SMILES): COC(=O)c1cccc(COc2c(-c3ccc(OCCOCCOCCn4cc(CCCCOc5ccc(-c6cc(=O)c7cc(C)ccc7o6)cc5)nn4)cc3)oc3ccccc3c2=O)c1
- pEC50 [3]: 6.38

Structure (SMILES): Cc1ccc2oc(-c3ccc(OCCOCCOCCn4cc(COCCOc5ccc6c(=O)cc(-c7ccccc7)oc6c5)nn4)cc3)cc(=O)c2c1
- pEC50 [1]: 6.84
- pEC50 [2]: 7.05
- pEC50 [3]: 6.11

Structure (SMILES): Cc1ccc2oc(-c3ccc(OCCOCCOCCOCCOCCOc4ccc(-c5cc(=O)c6cc(C)ccc6o5)cc4)cc3)cc(=O)c2c1 [1,16-Bis[40-((6-methyl)-4H-chromen-4-on-2-yl)phenyl]-1,4,7,10,13,16-hexaoxahexadecane]
- pEC50 [1]: 7.20
- pEC50 [2]: 7.19
- pEC50 [3]: 6.58

Structure (SMILES): O=c1cc(-c2ccccc2)oc2cc(OCCOCc3cn(CCOCCOCCOc4ccc(-c5oc6ccccc6c(=O)c5OCc5ccccc5)cc4)nn3)ccc12
- pEC50 [1]: 7.60
- pEC50 [2]: 7.42
- pEC50 [3]: 6.42

Structure (SMILES): O=c1cc(-c2ccccc2)oc2cc(OCCCCc3cn(CCOCCOc4ccc(-c5cc(=O)c6cc(F)ccc6o5)cc4)nn3)ccc12
- pEC50 [1]: 7.74
- pEC50 [2]: 7.37
- pEC50 [3]: 6.58

Structure (SMILES): O=c1cc(-c2ccccc2)oc2cc(OCCCc3cn(CCOCCOCCOc4ccc(-c5oc6ccccc6c(=O)c5OCc5ccccc5)cc4)nn3)ccc12
- pEC50 [1]: 7.11
- pEC50 [2]: 7.22
- pEC50 [3]: 6.59

Structure (SMILES): COC(=O)c1cccc(COc2c(-c3ccc(OCCOCCOCCn4cc(CCCCOc5ccc6c(=O)cc(-c7ccccc7)oc6c5)nn4)cc3)oc3ccccc3c2=O)c1
- pEC50 [3]: 6.55

Structure (SMILES): Cc1ccc2oc(-c3ccc(OCCOCCOCCn4cc(CN(CCOc5ccc6c(=O)cc(-c7ccccc7)oc6c5)Cc5ccccc5)nn4)cc3)cc(=O)c2c1
- pEC50 [1]: 7.80
- pEC50 [2]: 7.26
- pEC50 [3]: 6.68

Structure (SMILES): O=c1cc(-c2ccccc2)oc2cc(OCCN(Cc3ccccc3)Cc3cn(CCOCCOCCOc4ccc(-c5cc(=O)c6cc(F)ccc6o5)cc4)nn3)ccc12
- pEC50 [1]: 7.70
- pEC50 [2]: 7.57
- pEC50 [3]: 6.48

Structure (SMILES): COC(=O)c1cccc(COc2c(-c3ccc(OCCOCCn4cc(COCCOc5ccc6c(=O)cc(-c7ccccc7)oc6c5)nn4)cc3)oc3ccccc3c2=O)c1
- pEC50 [1]: 7.74
- pEC50 [3]: 6.36

Structure (SMILES): COC(=O)c1cccc(COc2c(-c3ccc(OCCOCCn4cc(-c5ccc(-c6cn(CCOCCOc7ccc(-c8oc9ccccc9c(=O)c8OCc8cccc(C(=O)OC)c8)cc7)nn6)cc5)nn4)cc3)oc3ccccc3c2=O)c1
- pEC50 [1]: 7.57
- pEC50 [2]: 7.85
- pEC50 [3]: < 6.00

Structure (SMILES): O=c1cc(-c2ccc(OCCOCCn3cc(CCCCOc4ccc5c(=O)cc(-c6ccccc6)oc5c4)nn3)cc2)oc2ccccc12
- pEC50 [1]: 7.60
- pEC50 [2]: 7.28
- pEC50 [3]: 6.49

Structure (SMILES): O=c1cc(-c2ccc(OCCOCCOCCn3cc(CCCCOc4ccc5c(=O)cc(-c6ccccc6)oc5c4)nn3)cc2)oc2ccccc12
- pEC50 [1]: 7.74
- pEC50 [2]: 7.33
- pEC50 [3]: 6.44

Structure (SMILES): O=c1cc(-c2ccccc2)oc2cc(OCCOCCOCCn3cc(CN(CCOc4ccc5c(=O)cc(-c6ccccc6)oc5c4)Cc4ccccc4)nn3)ccc12
- pEC50 [1]: 7.24
- pEC50 [2]: 7.27
- pEC50 [3]: 6.39

Structure (SMILES): O=c1cc(-c2ccc(OCCCc3cn(CCOCCOCCOc4ccc(-c5cc(=O)c6cc(F)ccc6o5)cc4)nn3)cc2)oc2cc(F)ccc12
- pEC50 [1]: 8.40
- pEC50 [2]: 8.51
- pEC50 [3]: 6.79

Structure (SMILES): COC(=O)c1cccc(COc2c(-c3ccc(OCCOCCn4cc(CCCOc5ccc6c(=O)cc(-c7ccccc7)oc6c5)nn4)cc3)oc3ccccc3c2=O)c1
- pEC50 [1]: 7.62
- pEC50 [2]: 8.14
- pEC50 [3]: 6.21

Structure (SMILES): Cc1ccc2oc(-c3ccc(OCCCCc4cn(CCOCCOCCOc5ccc(-c6oc7ccccc7c(=O)c6OCc6ccccc6)cc5)nn4)cc3)cc(=O)c2c1
- pEC50 [1]: 7.70
- pEC50 [2]: 7.62
- pEC50 [3]: 6.37

Structure (SMILES): Cc1ccc2oc(-c3ccc(OCCCCc4cn(CCOCCOCCOc5ccc(-c6cc(=O)c7cc(C)ccc7o6)cc5)nn4)cc3)cc(=O)c2c1
- pEC50 [1]: 6.64
- pEC50 [2]: 7.27
- pEC50 [3]: 6.28

Structure (SMILES): O=c1cc(-c2ccccc2)oc2cc(OCCN(Cc3ccccc3)Cc3cn(CCOCCOCCOc4ccc(-c5oc6ccccc6c(=O)c5OCc5ccccc5)cc4)nn3)ccc12
- pEC50 [1]: 7.16
- pEC50 [2]: 6.81
- pEC50 [3]: 6.01

Structure (SMILES): Cc1ccc2oc(-c3ccc(OCCOCCOCCn4cc(CN(Cc5ccccc5)Cc5cn(CCOCCOCCOc6ccc(-c7cc(=O)c8cc(C)ccc8o7)cc6)nn5)nn4)cc3)cc(=O)c2c1
- pEC50 [1]: 7.34
- pEC50 [3]: 6.12

Structure (SMILES): Cc1ccc2oc(-c3ccc(OCCCCc4cn(CCOCCOCCOc5ccc(-c6cc(=O)c7ccccc7o6)cc5)nn4)cc3)cc(=O)c2c1
- pEC50 [1]: 6.80
- pEC50 [2]: 6.55
- pEC50 [3]: < 6.00

Structure (SMILES): COC(=O)c1cccc(COc2c(-c3ccc(OCCOCCn4cc(CN5CCN(Cc6cn(CCOCCOc7ccc(-c8oc9ccccc9c(=O)c8OCc8cccc(C(=O)OC)c8)cc7)nn6)CC5)nn4)cc3)oc3ccccc3c2=O)c1
- pEC50 [1]: 7.72
- pEC50 [2]: 7.74
- pEC50 [3]: 6.17

Structure (SMILES): O=c1cc(-c2ccccc2)oc2cc(OCCCc3cn(CCOCCOCCOc4ccc(-c5cc(=O)c6cc(F)ccc6o5)cc4)nn3)ccc12
- pEC50 [1]: 7.01
- pEC50 [2]: 7.42
- pEC50 [3]: 6.48

Structure (SMILES): O=c1cc(-c2ccccc2)oc2cc(OCCN(Cc3ccccc3)Cc3cn(CCOc4ccc5c(=O)cc(-c6ccccc6)oc5c4)nn3)ccc12
- pEC50 [1]: 6.55
- pEC50 [2]: 6.72
- pEC50 [3]: 6.05

Structure (SMILES): COC(=O)c1cccc(COc2c(-c3ccc(OCCOCCOCCn4cc(CN(Cc5cn(CCOCCOCCOc6ccc(-c7oc8ccccc8c(=O)c7OCc7cccc(C(=O)OC)c7)cc6)nn5)c5ccccc5)nn4)cc3)oc3ccccc3c2=O)c1
- pEC50 [1]: 8.41
- pEC50 [2]: 8.24
- pEC50 [3]: < 6.00

Structure (SMILES): O=c1cc(-c2ccc(OCCOCCOCCn3cc(CN(CCOc4ccc5c(=O)cc(-c6ccccc6)oc5c4)Cc4ccccc4)nn3)cc2)oc2ccccc12
- pEC50 [1]: 7.77
- pEC50 [2]: 7.43
- pEC50 [3]: 6.56

Structure (SMILES): COC(=O)c1cccc(COc2c(-c3ccc(OCCOCCOCCn4cc(CCCOc5ccc(-c6cc(=O)c7ccc(F)cc7o6)cc5)nn4)cc3)oc3ccccc3c2=O)c1
- pEC50 [1]: 8.64
- pEC50 [2]: 8.70
- pEC50 [3]: 6.61

Structure (SMILES): O=c1cc(-c2ccccc2)oc2cc(OCCCCc3cn(CCOCCOCCOc4ccc(-c5oc6ccccc6c(=O)c5OCc5ccccc5)cc4)nn3)ccc12
- pEC50 [1]: 7.80
- pEC50 [2]: 7.46
- pEC50 [3]: 6.56

Structure (SMILES): O=c1cc(-c2ccc(OCCOCCn3cc(CN(CCOc4ccc5c(=O)cc(-c6ccccc6)oc5c4)Cc4ccccc4)nn3)cc2)oc2ccccc12
- pEC50 [1]: 6.69
- pEC50 [2]: 7.07
- pEC50 [3]: 6.20

Structure (SMILES): O=c1cc(-c2ccccc2)oc2cc(OCCOCc3cn(CCOCCOCCOc4ccc(-c5cc(=O)c6cc(F)ccc6o5)cc4)nn3)ccc12
- pEC50 [1]: 6.58
- pEC50 [2]: 6.64
- pEC50 [3]: 6.01

Structure (SMILES): O=c1cc(-c2ccccc2)oc2cc(OCCOCc3cn(CCOCCOc4ccc(-c5oc6ccccc6c(=O)c5OCc5ccccc5)cc4)nn3)ccc12
- pEC50 [3]: 6.46

Structure (SMILES): COC(=O)c1cccc(COc2c(-c3ccc(OCCOCCn4cc(CCCOc5ccc(-c6cc(=O)c7ccc(F)cc7o6)cc5)nn4)cc3)oc3ccccc3c2=O)c1
- pEC50 [1]: 8.19
- pEC50 [2]: 8.02
- pEC50 [3]: 6.32

Structure (SMILES): O=c1cc(-c2ccccc2)oc2cc(OCCCc3cn(CCOCCOc4ccc5c(=O)cc(-c6ccccc6)oc5c4)nn3)ccc12
- pEC50 [1]: 7.66
- pEC50 [2]: 7.38
- pEC50 [3]: 6.31

Structure (SMILES): O=c1cc(-c2ccccc2)oc2cc(OCCCc3cn(CCOCCOCCOc4ccc5c(=O)cc(-c6ccccc6)oc5c4)nn3)ccc12
- pEC50 [1]: 6.75
- pEC50 [2]: 7.24
- pEC50 [3]: 6.29

Structure (SMILES): Cc1ccc2oc(-c3ccc(OCCCCc4cn(CCN(CCOc5ccc6c(=O)cc(-c7ccccc7)oc6c5)Cc5ccccc5)nn4)cc3)cc(=O)c2c1
- pEC50 [1]: 6.43
- pEC50 [2]: 6.27
- pEC50 [3]: < 6.00

Structure (SMILES): COC(=O)c1cccc(COc2c(-c3ccc(OCCOCCOCCn4cc(COCCOc5ccc6c(=O)cc(-c7ccccc7)oc6c5)nn4)cc3)oc3ccccc3c2=O)c1
- pEC50 [3]: 6.50

Structure (SMILES): O=c1cc(-c2ccc(OCCOCCn3cc(CN(Cc4ccccc4)Cc4cn(CCOCCOc5ccc(-c6cc(=O)c7ccccc7o6)cc5)nn4)nn3)cc2)oc2ccccc12
- pEC50 [1]: 6.69
- pEC50 [3]: 6.17

Structure (SMILES): Cc1ccc2oc(-c3ccc(OCCCCc4cn(CCOCCOCCOc5ccc6c(=O)cc(-c7ccccc7)oc6c5)nn4)cc3)cc(=O)c2c1
- pEC50 [1]: 6.82

Structure (SMILES): O=c1cc(-c2ccc(OCCOCCn3cc(CCCOc4ccc(-c5cc(=O)c6ccc(F)cc6o5)cc4)nn3)cc2)oc2ccccc12
- pEC50 [2]: 8.14
- pEC50 [3]: 6.81

Structure (SMILES): COC(=O)c1cccc(COc2c(-c3ccc(OCCOCCn4cc(CCCCOc5ccc6c(=O)cc(-c7ccccc7)oc6c5)nn4)cc3)oc3ccccc3c2=O)c1
- pEC50 [2]: 8.28
- pEC50 [3]: 6.49

Structure (SMILES): COC(=O)c1cccc(COc2c(-c3ccc(OCCOCCn4cc(CCCCOc5ccc(-c6cc(=O)c7cc(C)ccc7o6)cc5)nn4)cc3)oc3ccccc3c2=O)c1
- pEC50 [3]: 6.37
